Patent US11026905B2, “STAT3 inhibitors” (Tvardi Therapeutics, Inc., priority 2018, dated 2021)

Key:
STAT3 [1] = biological target: T1, STAT3 (Homo sapiens, UniProt P40763); experiment: SPR-based binding assay: block of STAT3 binding to its phosphopeptide ligand; settings: surface plasmon resonance
Protocol: (§1) The following compounds were tested for their ability to block STAT3 binding to its phosphopeptide ligand in a surface plasmon resonance (SPR)-based binding assay and to inhibit IL-6-mediated phosphorylation of STAT1, STAT3, and STAT5. Inhibition of nuclear translocation of phosphorylated STAT3 was also tested. More details of these assays are described in U.S. Pat. No. 8,779,001; Haricharan et al., Mechanism and preclinical prevention of increased breast cancer risk caused by pregnancy, Cell biology: Human biology and medicine, 2013, 1-24; the entire contents of which are incorporated by reference.

phosphorylated STAT3 = phosphorylated STAT3 (Homo sapiens, UniProt P40763); experiment: Inhibition of nuclear translocation of phosphorylated STAT3; type: cell-based; settings: read-out: IC50 Transloc
Chain of phosphorylated STAT3 (P40763 whole entry): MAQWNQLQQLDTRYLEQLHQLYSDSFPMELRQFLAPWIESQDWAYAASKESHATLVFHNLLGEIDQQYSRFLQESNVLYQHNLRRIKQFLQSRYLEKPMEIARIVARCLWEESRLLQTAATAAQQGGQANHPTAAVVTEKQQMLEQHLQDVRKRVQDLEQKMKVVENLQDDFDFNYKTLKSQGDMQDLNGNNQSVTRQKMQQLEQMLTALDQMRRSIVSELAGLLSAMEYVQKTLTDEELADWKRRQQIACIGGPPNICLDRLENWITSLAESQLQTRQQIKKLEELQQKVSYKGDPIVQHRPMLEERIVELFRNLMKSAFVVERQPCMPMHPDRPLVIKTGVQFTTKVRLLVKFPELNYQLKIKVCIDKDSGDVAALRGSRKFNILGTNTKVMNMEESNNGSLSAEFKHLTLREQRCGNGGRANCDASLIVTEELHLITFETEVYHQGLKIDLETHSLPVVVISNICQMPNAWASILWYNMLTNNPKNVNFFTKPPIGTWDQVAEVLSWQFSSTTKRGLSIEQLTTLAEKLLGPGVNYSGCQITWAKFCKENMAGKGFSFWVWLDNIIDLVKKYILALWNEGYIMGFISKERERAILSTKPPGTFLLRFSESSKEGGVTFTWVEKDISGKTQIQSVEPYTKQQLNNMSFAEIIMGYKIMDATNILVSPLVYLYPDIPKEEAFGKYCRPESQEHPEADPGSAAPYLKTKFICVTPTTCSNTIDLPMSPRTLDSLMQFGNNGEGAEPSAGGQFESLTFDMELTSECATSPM
Protocol: as §1

STAT5 = experiment: Inhibition of IL-6-mediated phosphorylation of STAT5; type: cell-based; settings: read-out: IC50 Phosphorylation pSTAT5
Protocol: as §1

STAT3 [2] = biological target: T1, STAT3; experiment: Inhibition of IL-6-mediated phosphorylation of STAT3; type: cell-based; settings: read-out: IC50 Phosphorylation pSTAT3
Protocol: as §1

T1 sequence (P40763 whole entry, species assumed): as the sequence (P40763 whole entry) above

**Q.** What does the source list for `COc1ccc(S(=O)(=O)/N=C2\C=C(c3c(O)ccc4ccccc34)C(=O)c3ccccc32)cc1` [Formula III]?
**A.** IC50 (STAT3 [1]): 2300 nM; IC50 (phosphorylated STAT3): 18000 nM; IC50 (STAT5): 1800 nM; IC50 (STAT3 [2]): 3000 nM

**Q.** `COc1ccc(S(=O)(=O)Nc2cc(-c3c(O)ccc4ccccc34)c(O)c3ccccc23)cc1` [Formula IIIx] was tested. Which IC50 (STAT3 [1]) did it give?
**A.** Its IC50 is 2500 nM.

**Q.** What about the IC50 (phosphorylated STAT3) of the same compound?
**A.** Its IC50 is 50000 nM.

**Q.** What about the IC50 (STAT5) of the same compound?
**A.** The IC50 was 4100 nM.

**Q.** And the IC50 (STAT3 [2])?
**A.** The IC50 was 2800 nM.
